Measurements: patent US20130072404A1, “APPARATUS AND PROCESSES FOR GENERATING VARIABLE CONCENTRATION OF SOLUTES IN MICRODROPLETS” (UNIVERSITE DE STRASBOURG, priority 2009, published 2013)
Several values for one entry are separate records, joined by “and”; a condition that tells them apart may be missing. Identical values can stand only once. Like-named read-outs stand apart in the source and are kept apart here.

Assays:
Set-up in all cases: purchased Sigma-Aldrich Co
[1] = target: T1, β-galactosidase (Escherichia coli, UniProt P00722); conditions: Angenendt et al., 2004; read-out: IC50 literature value; cited from earlier work
[2] = target: T1, β-galactosidase; assay: Standard microplate assay (Example 1 comparison values); type: biochemical; conditions: read-out: IC50 of PETG measured in a standard microplate assay
[3] = target: T1, β-galactosidase; assay: Droplet microfluidic IC50 measurement, on-chip serial dilution network with scanning chamber (Example 1d), RBG substrate; type: biochemical; conditions: 75 s droplet incubation, 4-parameter log-logistic fit, read-out: IC50 of PETG in the enzyme/substrate/inhibitor system
Description: (§1) In the examples, the model systems comprised an enzyme, a substrate, and an inhibitor for IC50 measurements and an enzyme and substrate alone for KM measurements. In all cases the enzyme was β-galactosidase (Sigma-Aldrich Co.), the substrate was resorufin β-D-galactopyranoside (RBG; Invitrogen Corporation), and the inhibitor was phenylethyl β-D-thiogalactopyranoside (PETG; Invitrogen Corporation).
An aqueous phase of 120 μM PETG (the inhibitor) and 100 μM sodium fluorescein in PBS were injected into the ‘compound’ input of the micro fluidic device (FIG. 4) at a flow rate of 111 μl/hr. A second aqueous phase, PBS, was injected into the ‘diluent’ input at a flow rate of 389 μl/hr. […]
A series of microdroplets were created containing PETG (and sodium fluorescein) at different concentrations: from zero to 30 μM (25 μM sodium fluorescein) and then from 30 μM to zero. […] The amounts of fluorescent resorufin (liberated by β-galactosidase activity) and sodium fluorescein were measured for each droplet by monitoring fluorescence intensity in the 590-625 and 500-520 nm channels, respectively.
(§2) About 10^5 microdroplets were plotted in an XY graph with initial reaction rate (inferred from resorufin fluorescence after 75 seconds of droplet incubation) against inhibitor concentration (assumed to be proportional to sodium fluorescein fluorescence). […]

[4] = target: T1, β-galactosidase; assay: Droplet microfluidic IC50 measurement, Taylor dispersion dilution (Example 1c), RBG substrate; type: biochemical; conditions: Taylor dispersion pulse, 30 s droplet incubation, 4-parameter log-logistic fit; read-out: IC50 of PETG in the enzyme/substrate/inhibitor system
Source text: as §1
A microfluidic emulsion of 90 pl aqueous microdroplets was generated by injecting the microfluidic device (FIG. 2) with an oil phase and three aqueous phases. The oil phase consisted of 1% (w/w) EA surfactant dissolved in HFE-7500 flowing at 680 μl/hr. […]
The autosampler was used to introduce a single 1 μl pulse of 120 μM PETG (the inhibitor) to the PBS flowing to the device through the silane-treated capillary. The inclusion of 40 μM of the fluorophore sodium fluorescein with the inhibitor allowed the concentration of PETG to be inferred downstream from the degree of fluorescence observed in the 500-520 nm channel. […]
as §2, with “The” for “About 10^5”, “microdroplets in the initial climb in inhibitor concentration (the leading front of the inhibitor pulse)” for “microdroplets”, “30” for “75”

T1 sequence (P00722 2-1024 limits assumed): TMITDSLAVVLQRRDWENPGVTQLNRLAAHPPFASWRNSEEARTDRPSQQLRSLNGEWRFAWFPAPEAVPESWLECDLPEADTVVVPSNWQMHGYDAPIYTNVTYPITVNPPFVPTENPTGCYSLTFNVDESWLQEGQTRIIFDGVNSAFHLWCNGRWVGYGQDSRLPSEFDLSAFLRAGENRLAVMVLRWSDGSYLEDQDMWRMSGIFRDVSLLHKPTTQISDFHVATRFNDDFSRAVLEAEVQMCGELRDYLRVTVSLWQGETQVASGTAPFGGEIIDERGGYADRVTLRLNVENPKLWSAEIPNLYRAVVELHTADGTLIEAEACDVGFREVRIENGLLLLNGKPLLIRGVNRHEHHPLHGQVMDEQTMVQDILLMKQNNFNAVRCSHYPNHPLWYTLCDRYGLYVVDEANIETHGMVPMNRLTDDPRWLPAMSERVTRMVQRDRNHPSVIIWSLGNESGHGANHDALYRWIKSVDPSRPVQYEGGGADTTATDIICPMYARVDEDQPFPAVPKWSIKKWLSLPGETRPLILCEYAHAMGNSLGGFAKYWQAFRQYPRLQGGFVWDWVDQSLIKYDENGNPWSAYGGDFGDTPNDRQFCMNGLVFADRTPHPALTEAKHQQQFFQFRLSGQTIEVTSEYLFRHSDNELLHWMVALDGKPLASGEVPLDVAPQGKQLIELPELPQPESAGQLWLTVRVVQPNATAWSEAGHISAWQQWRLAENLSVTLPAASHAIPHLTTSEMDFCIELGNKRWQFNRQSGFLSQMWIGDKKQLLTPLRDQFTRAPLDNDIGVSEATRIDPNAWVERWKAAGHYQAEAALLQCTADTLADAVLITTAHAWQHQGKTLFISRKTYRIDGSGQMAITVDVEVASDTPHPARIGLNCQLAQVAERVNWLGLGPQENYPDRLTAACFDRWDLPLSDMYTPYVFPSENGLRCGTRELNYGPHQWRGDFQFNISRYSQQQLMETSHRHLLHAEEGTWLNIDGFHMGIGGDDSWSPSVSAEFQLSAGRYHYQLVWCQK

In the case of `OC[C@H]1O[C@@H](SCCc2ccccc2)[C@H](O)[C@@H](O)[C@H]1O` [PETG, phenylethyl β-D-thiogalactopyranoside], the IC50 [1] is given as 3.1 µM, the IC50 [2] is given as 1.43 µM and the IC50 [3] is given as 2.21 µM and 3.04 µM. The IC50 [4] was 3.04 µM.
